Series [1] can be described thus: Solubility of vorolanib in water. The series is classed as physicochemical. Here is the method:
Vorolanib has the chemical designation (S,Z)—N-(1-(Dimethylcarbamoyl) pyrrolidin-3-yl)-5-((5-fluoro-2-oxoindolin-3-ylidene)methyl)-2,4-dimethyl-1H-pyrrole-3-carboxamide. Synonyms include the term “X-82”. The molecular formula is C23H26FN5O3. The solubility of vorolanib in water is less than 10 μg/mL.

A short description of series [2]: Plasma and ocular tissue levels after oral vorolanib in the retinal detachment study. The following applies: 40 mg/kg oral once a day. The class given is in vivo, C57Bl/6 mice. Here is the method:
(§1) An 18-day study was conducted in age-matched and experimentally naive C57Bl/6 mice. Prior to experiments, the mice were randomly distributed into two separate study arms, and identification numbers were assigned to individual mice. Prior to dosing initiation, baseline experiments were conducted to measure visual acuity and contrast vision by optokinetic tracking (OKT), and to measure retinal and outer nuclear layer (ONL) thickness in images obtained by optical coherence tomography (OCT). On Day 1, and continuing until Day 18, the mice received once a day oral administration of vehicle (Arm 1), or Vorolanib at 40 mg/kg (Arm 2). On Day 2, bilateral subretinal injection of sodium hyaluronate was performed to induce retinal detachment. On Day 16, visual acuity and contrast vision thresholds were measured, and on Day 17, OCT was performed to measure retinal and ONL thickness. On Day 18, terminal collections were performed at either 30 minutes, or 4 hours, post-administration, with whole blood collected and processed to plasma, left eyes collected and fixed for histology, and right eyes collected and dissected to yield cornea, lens, retinal pigment epithelium (RPE)/choroid/sclera, and retina, separately.
Day 18 at 30 min±5 min following oral administration of vehicle or test agent: Terminal plasma collection; Enucleation of eyes with left eyes fixed in 10% NBF and right eyes dissected to yield cornea, lens, RPE/choroid/sclera, and retina, with tissue snap frozen in liquid N2 with tube and tissue weights recorded (n=4 mice/arm).
Day 18 at 4 hr±15 min following oral administration of vehicle or test agent: Terminal plasma collection; Enucleation of eyes with left eyes fixed in 10% NBF and right eyes dissected to yield cornea, lens, RPE/choroid/sclera, and retina, with tissue snap frozen in liquid N2 with tube and tissue weights recorded (n=4 mice/arm).
Oral gavage was performed on conscious mice by trained personnel; no anesthesia was required. […]

The subject of series [3] is sodium Hyaluronate-induced retinal detachment. Description: Sodium hyaluronate-induced retinal detachment model: OKT and OCT. The series is classed as in vivo, C57Bl/6 mice. Here is the method:
as §1
Mouse eyes were dilated and the animals were anesthetized according to standard operating procedures. The mouse was placed on a regulated heating pad, and the posterior pole was visualized under magnification. A 12.7 mm 30-gauge insulin syringe was used to puncture the cornea just above the corneal limbus, avoiding any contact with the sclera and lens. The transvitreal subretinal injections were performed using a 10 μL Hamilton syringe with a 33-gauge blunt needle inserted through the corneal puncture across the vitreous, with the shaft aimed at the back of the eyecup, avoiding any trauma to the lens or iris. A total volume of 1 μL was delivered.
OKT is performed using an OptoMotry designed for rodent use (Cerebral Mechanics Inc.). In this non-invasive assessment, mice are placed onto a platform surrounded by 4 LCD screens which reside within a light-protected box. Visual stimuli are then presented to the mouse via the LCD screens and a masked observer visualizes and scores optokinetic tracking reflexes from a digital camcorder which is mounted on the top of the box. The monitors display continuous vertical sine wave gratings rotating across the monitors at 12 degrees/s which appear to the animal as a virtual three-dimensional rotating […]. The rotation of the virtual cylinder is constantly centered at the animal's viewing position to ensure a consistent viewing distance. Tracking movements are identified as slow, steady head movements in the direction of the rotating grating. For measurements of spatial frequency threshold, mice were tested at a range of spatial frequencies from 0.064 to 0.464 cycles/degree. […] All measurements of contrast threshold were performed at a spatial frequency threshold of 0.064 cycles/degree. The contrast threshold is calculated as a reciprocal of the Michelson contrast from the screen's luminance (maximum−minimum)/(maximum+minimum). The reciprocal of the contrast threshold is plotted.
Animals were anesthetized and eyes were dilated according to standard procedures. Following sedation and dilation, animals were secured on a platform and presented to a Micron
IV OCT module (Phoenix Research Inc.) for imaging. The total retina thickness and outer nuclear layer thickness were measured from vertical and horizontal scans within each eye, and the data was plotted as the average retinal thickness across the scans.
Graphs were generated using GraphPad Prism (v. 9.4.0). […]

The test system of series [4] is Swine (Mini-pig) Model of Laser-Induced Choroidal Neovascularization (CNV). Briefly: Laser-induced choroidal neovascularization model, fluorescein angiography (CTLF). The series is classed as in vivo. Particulars: Day 0. Here is the method: Safety and efficacy of a vorolanib insert were evaluated in a Swine (Mini-pig) Model of Laser-Induced Choroidal Neovascularization (CNV). The primary objective of this study was to evaluate the long-term safety and inhibition of vascular permeability and neovascularization in a laser-induced model of choroidal neovascularization (CNV) using a vorolanib insert in swine.
On the day of lasering (Groups 1-4) animals were treated with an 810 nm diode laser delivered through an indirect ophthalmoscope. Approximately 6 single laser spots were placed between retinal veins. Both eyes underwent laser treatment according to the schedule in the table above.
On the day of intravitreal injections animals were anesthetized and the eyes were aseptically prepared. […] Animals were allowed to recover normally from the procedure. The pigs were given a topical drop of antibiotic ophthalmic solution 4-6 hours later, and then BID for 2 additional days with at least 6 hours between doses. Animals were dosed on either Day 0 immediately following laser CNV induction or 7 days prior to laser CNV induction according to the schedule in the table above.
Flourescein Angiography was done in both eyes in anesthetized animals at the timepoints as indicated in the experimental design table.

[5] abbreviates: 40 mg/kg oral once a day, baseline to Day 17, OCT.

Entries after “also recorded” stand apart in the source; their conditions may differ. A value given as a limit tells only on which side of the number the result lay.

With `Cc1[nH]c(/C=C2\C(=O)Nc3ccc(F)cc32)c(C)c1C(=O)N[C@H]1CCN(C(=O)N(C)C)C1` [vorolanib, (S,Z)—N-(1-(Dimethylcarbamoyl)pyrrolidin-3-yl)-5-((5-fluoro-2-oxoindolin-3-ylidene)methyl)-2,4-dimethyl-1H-pyrrole-3-carboxamide], the solubility (commonly how much of the substance goes into solution per volume) in series [1] was below 10 µg/mL. In addition, the presence in plasma entry in series [2] (18 consecutive days) is “present in the plasma up to 4 hours”. Also, the tissue distribution entry in series [2] (18 days) is listed as “primarily in RPE/Choroid/Sclera tissue at levels that exceed plasma concentrations”. In addition, the “detection in ocular tissues” value in series [2] (up to 4 hours following the terminal dose) is “within detectable range in all ocular tissues tested, except lens tissue”. Besides, the “overall effect in retinal detachment model” value in series [3] (40 mg/kg once a day for 18 consecutive days, compared to vehicle) is given as “significant neuroprotective effect”. Further, in series [3] (40 mg/kg oral once a day, Day 16), the “mean spatial frequency threshold (SFT)” value worked out at 0.306 cycles/degree. Besides, the “contrast thresholds compared to vehicle” value in series [3] (40 mg/kg oral once a day, Day 16, P=0.0009) is on record as “significantly higher; also recorded: statistically significant improvement”. In series [3] (40 mg/kg oral once a day, OKT), the “loss of contrast vision, baseline to Day 16” value is given as 41% and the “loss of visual acuity, baseline to Day 16” value was determined as 23%. Also, in series [3] (setting [5]), the “loss of ONL thickness in horizontal scans” value is on record as “no loss” and the “loss of ONL thickness in vertical scans” value was 1%. For the same molecule, in series [3] (40 mg/kg oral vs vehicle, OCT), the “total retinal thickness across the treatment arms” value is reported as “no statistically significant differences”. Besides, the “difference in mean SFT versus vehicle” value in series [3] (Day 16) is recorded as “not statistically significant”. The “mean retinal thickness across vertical and horizontal scans” value in series [3] (across both arms and timepoints) is 222-229 μm.

As to “aflibercept: VEGF inhibitor (Regeneron), intravitreal injection, positive control”, in series [4] (2 mg IVT), the “efficacy in laser CNV model” value is “normal amounts of efficacy”. In series [4] (Group 1: 2 mg, 50 μL/eye IVT), the “Corrected Total Lesion Fluorescence (CTLF) value, change from Day 7 to Day 28” value is reported as “largest reduction”.

Source of the values: patent US20250205152A1, “METHOD OF PREVENTING AGE-RELATED MACULAR DEGENERATION BY ADMINISTERING AN OCULAR DRUG DELIVERY INSERT” (EYEPOINT PHARMACEUTICALS, INC., priority 2022, published 2025).
